# Laboratory results as given in patent US7034056B2, “Aryl and biaryl compounds having MCH modulatory activity” (Pharmacopeia Drug Discovery, inc., priority 2001, dated 2006).
# Target: T1, hMCHR (MCH receptor) (Homo sapiens, UniProt Q99705)
# T1 construct: (or internally produced); host or cells: CHO (Chinese hamster ovary) cells, membrane preparation
# Test: MCH Assay PCOP Protocol ([125I]-MCH SPA binding to hMCHR-CHO membranes)
# Details: [125I]-MCH 0.5 nM, hMCHR-CHO membranes; read-out: Activity (ranges of Ki values)
# Experimental: A reaction mixture of 10 μg hMCHR-CHO overexpressing membranes (from Receptor Biology, Inc., Beltsville, Md., or internally produced) and 100 μg/well WGA-SPA beads (from Amersham Pharmacia Biotech, Inc., Piscataway, N.J.)/100 μl was prepared in MCHR assay buffer (25 mM HEPES, pH 7.4, 10 mM NaCl, 10 mM MgCl2, 5 mM MnCl2, 0.1% BSA). […] The assay plates were shaken for 5 minutes on a plate shaker, then incubated for 2 hours before cpm/well were determined in a Microbeta Trilux counter (from PerkinElmer Wallac, Inc., Gaithersburg, Md.).
# T1 sequence (Q99705 whole entry): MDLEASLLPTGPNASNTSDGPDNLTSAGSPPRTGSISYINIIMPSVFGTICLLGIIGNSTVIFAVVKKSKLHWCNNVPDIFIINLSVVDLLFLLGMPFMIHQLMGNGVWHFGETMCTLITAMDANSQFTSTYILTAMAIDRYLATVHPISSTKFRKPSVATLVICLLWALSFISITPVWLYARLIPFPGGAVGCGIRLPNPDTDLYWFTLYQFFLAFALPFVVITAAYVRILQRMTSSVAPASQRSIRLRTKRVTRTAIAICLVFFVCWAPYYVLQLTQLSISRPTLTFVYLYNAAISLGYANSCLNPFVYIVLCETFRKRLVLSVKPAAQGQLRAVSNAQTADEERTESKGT
row,SMILES,Ki [nM]
1,CN(C)CCCNCCC(CNC(=O)Nc1cc(Cl)cc(Cl)c1)c1ccc(-c2cc(F)cc(F)c2)cc1 (stereo not drawn) [Example 99],51 to 500
2,O=C(NCC(CCNC1CCCC1)c1ccc(-c2c(F)cccc2F)cc1)Nc1cc(Cl)cc(Cl)c1 (stereo not drawn) [Example 100],51 to 500
3,CN(C)CCCNCCC(CNC(=O)Nc1cc(Cl)cc(Cl)c1)c1ccc(-c2ccc(OC(F)(F)F)cc2)cc1 (stereo not drawn) [Example 101],51 to 500
4,CN(C)CCCNCCC(CNC(=O)Nc1cc(Cl)cc(Cl)c1)c1ccc(-c2c(F)cccc2F)cc1 (stereo not drawn) [Example 102],501 to 2500
5,O=C(NCC(CCNC1CCCC1)c1ccc2c(c1)OCO2)Nc1cc(Cl)cc(Cl)c1 (stereo not drawn) [Example 106],51 to 500
6,CC(CCNC1CCCC1)(CNC(=O)Nc1cc(Cl)cc(Cl)c1)c1ccc(Cl)c(Cl)c1 (stereo not drawn) [Example 107],51 to 500
7,O=C(NCC(CCNC1CCCC1)c1ccc(Cl)cc1)Nc1cc(C(F)(F)F)cc(C(F)(F)F)c1 (stereo not drawn) [Example 108],51 to 500
8,CN(C)CCCNCCC(CNC(=O)Nc1cc(Cl)cc(Cl)c1)c1ccc(Cl)cc1 (stereo not drawn) [Example 112],501 to 2500
9,CC(CCNC1CCCC1)(CNC(=O)Nc1ccc(F)c(F)c1)c1ccc(Cl)c(Cl)c1 (stereo not drawn) [Example 114],501 to 2500
10,CN(C)CCCNCCC(CNC(=O)Nc1cc(Cl)cc(Cl)c1)c1ccc2c(c1)OCO2 (stereo not drawn) [Example 116],501 to 2500
11,Cc1ccc(C(CCNCCCN(C)C)CNC(=O)Nc2cc(Cl)cc(Cl)c2)cc1C (stereo not drawn) [Example 118],501 to 2500
12,CN(C)CCCNCCC(C)(CNC(=O)Nc1ccc(F)c(F)c1)c1ccc(Cl)c(Cl)c1 (stereo not drawn) [Example 119],501 to 2500
13,O=C(NCC(CCNC1CCCC1)c1ccc2c(c1)OCO2)Nc1ccc(F)c([N+](=O)[O-])c1 (stereo not drawn) [Example 121],501 to 2500
14,CCOC(=O)N1CCC(NCCC(CNC(=O)Nc2cc(Cl)cc(Cl)c2)c2ccc(C)cc2)CC1 (stereo not drawn) [Example 123],51 to 500
15,O=C(NCC(CCNC1CCCC1)c1ccc(Cl)cc1)Nc1ccc(Cl)c(Cl)c1 (stereo not drawn) [Example 124],51 to 500
16,COc1cc(CNCCC(CNC(=O)Nc2ccc(F)c([N+](=O)[O-])c2)c2ccc(Cl)c(Cl)c2)cc(OC)c1OC (stereo not drawn) [Example 125],51 to 500
17,COc1cc(CNCCC(CNC(=O)Nc2ccc(F)c(Cl)c2)c2ccc(Cl)c(Cl)c2)cc(OC)c1OC (stereo not drawn) [Example 126],51 to 500
18,Cc1ccc(C(CCNC2CCCC2)CNC(=O)Nc2ccc(Cl)c(Cl)c2)cc1 (stereo not drawn) [Example 127],51 to 500
19,O=C(NCC(CCNC1CCCC1)c1ccc(Cl)c(Cl)c1)Nc1cccc(Cl)c1 (stereo not drawn) [Example 130],51 to 500
20,COc1cc(CNCCC(CNC(=O)Nc2ccc(F)c(F)c2)c2ccc(Cl)c(Cl)c2)cc(OC)c1OC (stereo not drawn) [Example 131],51 to 500
21,COc1cc(CNCCC(CNC(=O)Nc2cccc(C(F)(F)F)c2)c2ccc(Cl)c(Cl)c2)cc(OC)c1OC (stereo not drawn) [Example 132],51 to 500

row,SMILES,Ki [nM]
1,O=C(NCC(CCNC1CCCC1)c1ccc(Cl)c(Cl)c1)Nc1ccc(F)c(Cl)c1 (stereo not drawn) [Example 134],51 to 500
2,O=C(NCC(CCNC1CCNC1)c1ccc(Cl)c(Cl)c1)Nc1ccc(Cl)c(Cl)c1 (stereo not drawn) [Example 135],51 to 500
3,O=C(NCC(CCNC1CCCC1)c1ccc(Cl)cc1)Nc1cccc(Br)c1 (stereo not drawn) [Example 136],51 to 500
4,O=C(NCC(CCNC1CCCC1)c1ccc(Cl)cc1)Nc1cccc(Cl)c1 (stereo not drawn) [Example 139],501 to 2500
5,O=C(NCC(CCNC1CCCC1)c1ccc(Cl)c(Cl)c1)Nc1ccc(F)c(F)c1 (stereo not drawn) [Example 144],501 to 2500
6,CCCOC(=O)N1CCN(CCC(CNC(=O)Nc2cc(C(F)(F)F)cc(C(F)(F)F)c2)c2ccc(Cl)c(Cl)c2)CC1 (stereo not drawn) [Example 146],51 to 500
7,O=C(NCC(CCNC1CCCC1)c1cccc(-c2ccc3c(c2)OCO3)c1)Nc1cc(Cl)cc(Cl)c1 (stereo not drawn) [Example 147],51 to 500
8,O=C(NCC(CCNC1CCCC1)c1cccc(-c2cccc([N+](=O)[O-])c2)c1)Nc1cc(Cl)cc(Cl)c1 (stereo not drawn) [Example 148],51 to 500
9,O=C(NCC(CCNC1CCCC1)c1cccc(-c2ccc(Cl)cc2)c1)Nc1cc(Cl)cc(Cl)c1 (stereo not drawn) [Example 152],51 to 500
10,COc1ccc(-c2cccc(C(CCNCCCN(C)C)CNC(=O)Nc3cc(Cl)cc(Cl)c3)c2)cc1 (stereo not drawn) [Example 154],51 to 500
11,O=C(NCC(CCNC1CCCC1)c1cccc(-c2ccc(F)cc2)c1)Nc1cc(Cl)cc(Cl)c1 (stereo not drawn) [Example 155],51 to 500
12,O=C(NCC(CCNC1CCCC1)c1cccc(-c2cccc(F)c2)c1)Nc1cc(Cl)cc(Cl)c1 (stereo not drawn) [Example 156],51 to 500
13,O=C(NCC(CCNC1CCCC1)c1cccc(-c2cccc(Cl)c2)c1)Nc1cc(Cl)cc(Cl)c1 (stereo not drawn) [Example 158],51 to 500
14,O=C(NCC(CCNC1CCCC1)c1cccc(-c2ccc(F)c(Cl)c2)c1)Nc1cc(Cl)cc(Cl)c1 (stereo not drawn) [Example 159],51 to 500
15,Cc1ccc(C(CCNC2CCCC2)CN2CCN(c3cc(Cl)cc(Cl)c3)C2=O)cc1 (stereo not drawn) [Example 160],51 to 500
16,Cc1ccc(-c2cccc(C(CCNC3CCCC3)CNC(=O)Nc3cc(Cl)cc(Cl)c3)c2)cc1 (stereo not drawn) [Example 161],501 to 2500
17,Cc1ccc(-c2cccc(C(CCNCCCN(C)C)CNC(=O)Nc3cc(Cl)cc(Cl)c3)c2)cc1 (stereo not drawn) [Example 162],501 to 2500
18,COc1ccccc1-c1cccc(C(CCNC2CCCC2)CNC(=O)Nc2cc(Cl)cc(Cl)c2)c1 (stereo not drawn) [Example 164],501 to 2500
19,O=C(NCC(CCNC1CCCC1)c1cccc(-c2ccccc2Cl)c1)Nc1cc(Cl)cc(Cl)c1 (stereo not drawn) [Example 166],501 to 2500
20,CC(=O)Nc1cccc(-c2cccc(C(CCNCCCN(C)C)CNC(=O)Nc3cc(Cl)cc(Cl)c3)c2)c1 (stereo not drawn) [Example 168],501 to 2500

# Now from value to compound:
row,Ki [nM],SMILES
1,51 to 500,Cc1ccc(C(CCNC2CCCC2)CNC(=O)Nc2cc(Cl)cc(Cl)c2)cc1C (stereo not drawn) [Example 103]
2,51 to 500,O=C(NCC(CCNC1CCCC1)c1ccc2c(c1)OCO2)Nc1ccc(Cl)c([N+](=O)[O-])c1 (stereo not drawn) [Example 104]
3,51 to 500,CC(CCNC1CCCC1)(CNC(=O)Nc1ccc(Cl)c([N+](=O)[O-])c1)c1ccc(Cl)c(Cl)c1 (stereo not drawn) [Example 105]
4,51 to 500,Cc1ccc(C(CCNC2CCCC2)CNC(=O)Nc2cc(C(F)(F)F)cc(C(F)(F)F)c2)cc1C (stereo not drawn) [Example 109]
5,51 to 500,O=C(NCC(CCNC1CCCC1)c1cccs1)Nc1ccc(Cl)c([N+](=O)[O-])c1 (stereo not drawn) [Example 110]
6,51 to 500,CN(C)CCCNCCC(C)(CNC(=O)Nc1cc(Cl)cc(Cl)c1)c1ccc(Cl)c(Cl)c1 (stereo not drawn) [Example 111]
7,501 to 2500,CC(CCNC1CCCC1)(CNC(=O)Nc1ccc(F)c([N+](=O)[O-])c1)c1ccc(Cl)c(Cl)c1 (stereo not drawn) [Example 113]
8,501 to 2500,CN(C)CCCNCCC(C)(CNC(=O)Nc1ccc(Cl)c([N+](=O)[O-])c1)c1ccc(Cl)c(Cl)c1 (stereo not drawn) [Example 115]
9,501 to 2500,CN(C)CCCNCCC(C)(CNC(=O)Nc1ccc(F)c([N+](=O)[O-])c1)c1ccc(Cl)c(Cl)c1 (stereo not drawn) [Example 117]
10,501 to 2500,CN(C)CCCNCCC(CNC(=O)Nc1ccc(Cl)c([N+](=O)[O-])c1)c1ccc2c(c1)OCO2 (stereo not drawn) [Example 120]
11,51 to 500,CCOC(=O)N1CCC(NCCC(CNC(=O)Nc2cc(Cl)cc(Cl)c2)c2ccc(Cl)cc2)CC1 (stereo not drawn) [Example 122]
12,51 to 500,CCOC(=O)N1CCC(NCCC(CNC(=O)Nc2cccc(C(F)(F)F)c2)c2ccc(Cl)cc2)CC1 (stereo not drawn) [Example 128]
13,51 to 500,COc1cc(CNCCC(CNC(=O)Nc2cc(Cl)cc(Cl)c2)c2ccc(Cl)c(Cl)c2)cc(OC)c1OC (stereo not drawn) [Example 129]
14,51 to 500,O=C(NCC(CCNC1CCCC1)c1ccc(Cl)c(Cl)c1)Nc1cccc(Br)c1 (stereo not drawn) [Example 133]
15,51 to 500,CCOC(=O)N1CCC(NCCC(CNC(=O)Nc2cccc(C(F)(F)F)c2)c2ccc(C)cc2)CC1 (stereo not drawn) [Example 137]
16,51 to 500,O=C(NCC(CCNCCc1ccc(O)cc1)c1ccc(Cl)c(Cl)c1)Nc1ccc(F)c([N+](=O)[O-])c1 (stereo not drawn) [Example 138]

row,Ki [nM],SMILES
1,501 to 2500,O=C(NCC(CCNCCc1ccc(O)cc1)c1ccc(Cl)c(Cl)c1)Nc1ccc(F)c(F)c1 (stereo not drawn) [Example 140]
2,501 to 2500,O=C(NCC(CCNC1CCCC1)c1ccc(Cl)c(Cl)c1)Nc1ccc(F)c([N+](=O)[O-])c1 (stereo not drawn) [Example 141]
3,501 to 2500,Cc1ccc(C(CCNC2CCCC2)CNC(=O)Nc2cccc(Cl)c2)cc1 (stereo not drawn) [Example 142]
4,501 to 2500,Cc1ccc(C(CCNC2CCCC2)CNC(=O)Nc2cccc(Br)c2)cc1 (stereo not drawn) [Example 143]
5,501 to 2500,Cc1ccc(C(CCNC2CCNC2)CNC(=O)Nc2ccc(Cl)c(Cl)c2)cc1 (stereo not drawn) [Example 145]
6,51 to 500,N#Cc1cccc(-c2cccc(C(CCNC3CCCC3)CNC(=O)Nc3cc(Cl)cc(Cl)c3)c2)c1 (stereo not drawn) [Example 149]
7,51 to 500,CN(C)CCCNCCC(CNC(=O)Nc1cc(Cl)cc(Cl)c1)c1cccc(-c2ccc(C(F)(F)F)cc2)c1 (stereo not drawn) [Example 150]
8,51 to 500,CN(C)CCCNCCC(CNC(=O)Nc1cc(Cl)cc(Cl)c1)c1cccc(-c2ccc(Cl)cc2)c1 (stereo not drawn) [Example 151]
9,51 to 500,COc1cc(-c2cccc(C(CCNC3CCCC3)CNC(=O)Nc3cc(Cl)cc(Cl)c3)c2)cc(OC)c1OC (stereo not drawn) [Example 153]
10,51 to 500,O=C(NCC(CCNC1CCCC1)c1cccc(-c2ccc(Cl)c(Cl)c2)c1)Nc1cc(Cl)cc(Cl)c1 (stereo not drawn) [Example 157]
11,501 to 2500,CN(C)CCCNCCC(CNC(=O)Nc1cc(Cl)cc(Cl)c1)c1cccc(-c2ccc3c(c2)OCO3)c1 (stereo not drawn) [Example 163]
12,501 to 2500,CN(C)CCCNCCC(CNC(=O)Nc1cc(Cl)cc(Cl)c1)c1cccc(-c2ccc(F)cc2)c1 (stereo not drawn) [Example 165]
13,501 to 2500,CN(C)CCCNCCC(CNC(=O)Nc1cc(Cl)cc(Cl)c1)c1cccc(-c2ccc(Cl)c(Cl)c2)c1 (stereo not drawn) [Example 167]
14,501 to 2500,CN(C)CCCNCCC(CNC(=O)Nc1cc(Cl)cc(Cl)c1)c1cccc(-c2cccc(C#N)c2)c1 (stereo not drawn) [Example 169]
15,501 to 2500,CN(C)CCCNCCC(CNC(=O)Nc1cc(Cl)cc(Cl)c1)c1cccc(-c2ccc(F)c(Cl)c2)c1 (stereo not drawn) [Example 170]
